This note sets out measurements from US11919867B1, “5-(4,5-bis(4-bromophenyl)-2-(4-methoxyphenyl)-1H-imidazol-1-yl)pentanoic acid as an antimicrobial compound” (KING FAISAL UNIVERSITY, priority 2023, dated 2024).

What all share (assay type): cell-based
The test system of one test is Aspergillus flavus. Description: Agar plate disc-diffusion, antifungal inhibition zone. The conditions noted are these: Sabouraud's dextrose agar, 72 hours, DMSO control zone subtracted. The protocol:
(§1) The agar plate disc-diffusion method was applied. […] The discs were then placed onto the surface of agar plates (nutrient agar for bacteria and Sabouraud's dextrose agar for fungi) seeded with the test organism. Each plate contained 15 mL of the agar medium, previously seeded with 0.2 mL of the broth culture of each organism pregrown for 18 hours. The plates were incubated at 37° C. for 48 hours, and 72 hours for fungi. The inhibition zones was measured in mm. Discs impregnated with DMSO were used as a control, and its inhibition zone was subtracted from the tested compound actual inhibition zone.

In test [1] the test system is Chrysosporium keratinophilum. The description is as above. To be noted: Sabouraud's dextrose agar, 72 hours, DMSO control zone subtracted. The method, then: as §1
In another test the test system is Pseudomonas aeruginosa. As to the kind of experiment: Agar plate disc-diffusion, antibacterial inhibition zone. The conditions noted are these: nutrient agar, 37° C., 48 hours, DMSO control zone subtracted. The protocol: as §1
The subject of the next test is Staphylococcus aureus. Described as above. The conditions noted are these: nutrient agar, 37° C., 48 hours, DMSO control zone subtracted. The method, then:
as §1

For another test, the system named is Escherichia coli. The description is as above. To be noted: nutrient agar, 37° C., 48 hours, DMSO control zone subtracted. The protocol:
as §1

Another test has as its system Bacillus cereus. The test is described as above. The conditions noted are these: nutrient agar, 37° C., 48 hours, DMSO control zone subtracted. The method, then: as §1
[2] abbreviates: A = concentration of comp. = 10,000 μL.
[3] abbreviates: B = concentration of comp. = 30,000 μL.
The mark [4] stands for this setting: C = concentration of comp. = 50,000 μL.

In the case of `COc1ccc(-c2nc(-c3ccc(Br)cc3)c(-c3ccc(Br)cc3)n2CCCCC(=O)O)cc1` [V, 5-(4,5-bis(4-bromophenyl)-2-(4-methoxyphenyl)-1H-imidazol-1-yl)pentanoic acid], the “inhibition zone, Aspergillus flavus, A” value with Aspergillus flavus (setting [2]) amounted to 22 mm. The “inhibition zone, Aspergillus flavus, B” value with Aspergillus flavus (setting [3]) is on record as 25 mm. In addition, the “inhibition zone, Aspergillus flavus, C” value in the test with Aspergillus flavus (setting [4]) is 33 mm. The “inhibition zone, Chrysosporium keratinophilum, A” value in test [1] (setting [2]) is 26 mm. The “inhibition zone, Chrysosporium keratinophilum, B” value in test [1] (setting [3]) amounted to 27 mm. In addition, the “inhibition zone, Chrysosporium keratinophilum, C” value in test [1] (setting [4]) is 45 mm. Further, in the test with Pseudomonas aeruginosa (setting [2]), the “inhibition zone, Pseudomonas aeruginosa, A” value worked out at 26 mm. In addition, the “inhibition zone, Pseudomonas aeruginosa, B” value in the test on Pseudomonas aeruginosa (setting [3]) is listed as 29 mm. In addition, the “inhibition zone, Pseudomonas aeruginosa, C” value in the test on Pseudomonas aeruginosa (setting [4]) amounted to 40 mm. The “inhibition zone, Staphylococcus aureus, A” value in the test with Staphylococcus aureus (setting [2]) worked out at 15 mm. Further, the “inhibition zone, Staphylococcus aureus, B” value in the test on Staphylococcus aureus (setting [3]) is given as 22 mm. The “inhibition zone, Staphylococcus aureus, C” value in the test on Staphylococcus aureus (setting [4]) came out at 31 mm. Also, the “inhibition zone, Escherichia coli, A” value in the test with Escherichia coli (setting [2]) was 30 mm. Further, the “inhibition zone, Escherichia coli, B” value in the test with Escherichia coli (setting [3]) is on record as 40 mm. The “inhibition zone, Escherichia coli, C” value with Escherichia coli (setting [4]) is reported as 55 mm. Moreover, the “inhibition zone, Bacillus Cereus, A” value with Bacillus cereus (setting [2]) stood at 28 mm. In addition, the “inhibition zone, Bacillus Cereus, B” value with Bacillus cereus (setting [3]) is given as 29 mm. Also, in the test on Bacillus cereus (setting [4]), the “inhibition zone, Bacillus Cereus, C” value came to 39 mm.
